The experiment deals with 435261-313-R-J1-PDC tumor spheroid viability. The experiment is described as follows: Anticancer human tumor 435261-313-R-J1-PDC patient-derived colon adenocarcinoma cell line growth inhibition [PI3K]. To be noted: spheroids with HUVEC and MSC; for viability, T/C: stronger effect = lower value. Put shortly: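 We assembled tumor spheroids that included a stromal compartment of HUVEC and MSCs, then exposed them to targeted agents alone and together with PI3K pathway inhibitors. Concentration series descended by half-log from clinically achievable Cmax levels. Viability served as the endpoint.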

Setting [1] is: curve of first compound, second compound 0.0316 µM.
Where [2] appears, read: curve of first compound, second compound 0.1 µM.
Setting [3] is: curve of first compound, second compound 0.316 µM.
[4] abbreviates: curve of first compound, second compound 1 µM.
Where [5] appears, read: curve of first compound, second compound 3.16 µM.
The mark [6] stands for this setting: curve of first compound, second compound 10 µM.
Where [7] appears, read: second compound 0.0316 µM, first compound 0.0316 µM.
Where [8] appears, read: second compound 0.0316 µM, first compound 0.1 µM.
The mark [9] stands for this setting: second compound 0.0316 µM, first compound 0.316 µM.
The mark [10] stands for this setting: second compound 0.0316 µM, first compound 1 µM.
[11] abbreviates: second compound 0.0316 µM, first compound 3.16 µM.
Where [12] appears, read: second compound 0.0316 µM, first compound 10 µM.
The mark [13] stands for this setting: second compound 0.1 µM, first compound 0.0316 µM.
Where [14] appears, read: second compound 0.1 µM, first compound 0.1 µM.
The mark [15] stands for this setting: second compound 0.1 µM, first compound 0.316 µM.
[16] abbreviates: second compound 0.1 µM, first compound 1 µM.
[17] abbreviates: second compound 0.1 µM, first compound 3.16 µM.
The mark [18] stands for this setting: second compound 0.1 µM, first compound 10 µM.
Setting [19] is: second compound 0.316 µM, first compound 0.0316 µM.
Setting [20] is: second compound 0.316 µM, first compound 0.1 µM.
The mark [21] stands for this setting: second compound 0.316 µM, first compound 0.316 µM.
[22] abbreviates: second compound 0.316 µM, first compound 1 µM.
The mark [23] stands for this setting: second compound 0.316 µM, first compound 3.16 µM.
[24] abbreviates: second compound 0.316 µM, first compound 10 µM.
Setting [25] is: second compound 1 µM, first compound 0.0316 µM.
Setting [26] is: second compound 1 µM, first compound 0.1 µM.
The mark [27] stands for this setting: second compound 1 µM, first compound 0.316 µM.
Setting [28] is: second compound 1 µM, first compound 1 µM.
Setting [29] is: second compound 1 µM, first compound 3.16 µM.
Setting [30] is: second compound 1 µM, first compound 10 µM.
Setting [31] is: second compound 3.16 µM, first compound 0.0316 µM.
Where [32] appears, read: second compound 3.16 µM, first compound 0.1 µM.
Where [33] appears, read: second compound 3.16 µM, first compound 0.316 µM.
Where [34] appears, read: second compound 3.16 µM, first compound 1 µM.
[35] abbreviates: second compound 3.16 µM, first compound 3.16 µM.
[36] abbreviates: second compound 3.16 µM, first compound 10 µM.
The mark [37] stands for this setting: second compound 10 µM, first compound 0.0316 µM.
The mark [38] stands for this setting: second compound 10 µM, first compound 0.1 µM.
The mark [39] stands for this setting: second compound 10 µM, first compound 0.316 µM.
Where [40] appears, read: second compound 10 µM, first compound 1 µM.
[41] abbreviates: second compound 10 µM, first compound 3.16 µM.
Where [42] appears, read: second compound 10 µM, first compound 10 µM.

Broadly, the IC50 is the midpoint of a concentration-inhibition curve. By viability, T/C is commonly meant the ratio of treated to control.

For the molecule `CC(Cn1ccc(-c2ccc(C#N)c(Cl)c2)n1)NC(=O)c1cc(C(C)O)[nH]n1` (stereo not given) + Cc1nc(NC(=O)N2CCCC2C(N)=O)sc1-c1ccnc(C(C)(C)C(F)(F)F)c1, the IC50 under setting [1] was over 10000 nM; the half-maximal inhibitory concentration (IC50) under setting [2] was over 10000 nM; the IC50 under setting [3] is under 31.6 nM; the half-maximal inhibitory concentration (IC50) under setting [4] was under 31.6 nM; the IC50 under setting [5] is under 31.6 nM; the IC50 under setting [6] is under 31.6 nM. The viability, T/C under setting [7] was 107%; the viability, T/C under setting [8] was 71.6%; the viability, T/C under setting [9] was 83.6%; the viability, T/C under setting [10] is 84.8%; the viability, T/C under setting [11] was 101%; the viability, T/C under setting [12] was 106%. The viability, T/C reads like this: under setting [13], 68.3%; under setting [14], 70.4%; under setting [15], 71.3%; under setting [16], 72.2%; under setting [17], 66.3%; under setting [18], 73.7%. The viability, T/C is 37.6% under setting [19]; 54.1% under setting [20]; 37.3% under setting [21]; 50.9% under setting [22]; 63.7% under setting [23]; 49.4% under setting [24]. The viability, T/C is 24.6% under setting [25]; 36.8% under setting [26]; 36.3% under setting [27]; 34.2% under setting [28]; 38.6% under setting [29]; 31.6% under setting [30]. The viability, T/C is, setting by setting: under setting [31], 17.4%; under setting [32], 17.7%; under setting [33], 15.4%; under setting [34], 17.9%; under setting [35], 18.8%; under setting [36], 20.1%. Also, the viability, T/C is 9.77% under setting [37]; 6.96% under setting [38]; 8.76% under setting [39]; 9.85% under setting [40]; 10.7% under setting [41]; 6% under setting [42].

Consider `CC1(C)CCC(CN2CCN(c3ccc(C(=O)NS(=O)(=O)c4ccc(NCC5CCOCC5)c([N+](=O)[O-])c4)c(Oc4cnc5[nH]ccc5c4)c3)CC2)=C(c2ccc(Cl)cc2)C1`, for which the viability, T/C (compound 3.16 µM) is 107% [middle of 4 runs].

Turning to `COc1c(OCCCN2CCOCC2)ccc2c3n(c(=NC(=O)c4cnc(N)nc4)nc12)CCN3`, the viability, T/C reads like this: (compound 0.0316 µM) 29% [middle of 6 runs]; (compound 0.1 µM) 15.8% [middle of 6 runs]; (compound 0.316 µM) 8.17% [middle of 6 runs]; (compound 1 µM) 4.83% [middle of 6 runs]. Also, the concentration for half-maximal inhibition (IC50) (compound alone, run of 06/13/2023) is 13.3 nM [middle of 6 runs].

On to `Cn1ncc(Cl)c1-c1cc(C(=O)NC(CN)Cc2cccc(F)c2)sc1Cl` (stereo not given) + CC(Nc1ncnc2nc[nH]c12)c1cc2cccc(Cl)c2c(=O)n1-c1ccccc1, for which the IC50 is, setting by setting: under setting [1], 1400 nM; under setting [2], 527 nM; under setting [3], 565 nM; under setting [4], 863 nM; under setting [5], 679 nM; under setting [6], 155 nM. The viability, T/C runs as follows: under setting [7], 95.1%; under setting [8], 74.4%; under setting [9], 75.1%; under setting [10], 63.1%; under setting [11], 27.8%; under setting [12], 14.2%. The viability, T/C by setting is: under setting [13], 86.6%; under setting [14], 96.7%; under setting [15], 50%; under setting [16], 39.9%; under setting [17], 23.9%; under setting [18], 9.05%. Besides, the viability, T/C is 106% under setting [19]; 58.1% under setting [20]; 87.8% under setting [21]; 26.8% under setting [22]; 22.5% under setting [23]; 10.6% under setting [24]. The viability, T/C reads like this: under setting [25], 94.7%; under setting [26], 82.9%; under setting [27], 70.8%; under setting [28], 47.7%; under setting [29], 25.6%; under setting [30], 15.7%. Further, the viability, T/C runs as follows: under setting [31], 87.3%; under setting [32], 81.8%; under setting [33], 66.8%; under setting [34], 40.5%; under setting [35], 21.9%; under setting [36], 9.23%. For the same molecule, the viability, T/C by setting is: under setting [37], 62.1%; under setting [38], 62.8%; under setting [39], 35%; under setting [40], 27.5%; under setting [41], 22.1%; under setting [42], 6.29%.

The values are drawn from PubChem BioAssay AID1963976 (Molecular Pharmacology Branch, DTP, NCI, 2024).
